The target in assay [1] is mTOR (Mus musculus, UniProt P26883+Q9JLN9). The conditions noted are these: model not stated; cited from earlier work.
Assay [2] concerns Pkd1^Δ/Δ mice. Nature of the assay: Oral MK2206 treatment of Pkd1^Δ/Δ mice (ADPKD model). The class given is in vivo, mouse. Here is the method:
(§1) MK2206 treatment of Inpp5e^Δ/+ and Inpp5e^Δ/Δ mice commenced at P9 and were performed daily up to P14 before sacrifice at P15.MK2206 treatment of Pkd1 litters commenced at P4 and were performed daily up to P10 before sacrifice at P11. MK2206 was delivered orally by pipette in a solution of 27 mg/ml MK2206.2HCI (S1078, Selleck Chemicals) in 30% Capsitol (Cydex) and 5% glucose (49163-100ML, Sigma-Aldrich). Mice were dosed with a volume to deliver MK2206 up to 75 mg/kg as indicated. Mouse body weights were recorded daily. Solutions were stored at 4 degrees for up to 2 weeks. Mice were culled via cervical dislocation or decapitation, as most appropriate for their age following ethical guidelines. Procedures were all conducted by ethically approved and trained personnel. Mice were measured for body weight, with ear tissue, urine and kidneys collected. Ear tissue and urine was stored at -20 degrees. Newborn and P4 kidneys were fixed whole in 4% PFA for 16 hrs at 4 degrees, while the kidney capsule membrane was removed from older mouse kidneys, with the kidney cut into halves and fixed in 10% NBF for 16 hrs at room temperature. Half the kidney samples were sent for histological processing and the other half were snap frozen and stored at -80 degrees until processed for RNA, alpha analysis and/or western blotting. Kidney tissues were paraffin imbedded and sectioned at 4 μm for most analysis with the exception of being sectioned at 10 μm for cilia analysis. Antigen retrieval was performed in Citrate buffer pH6 using Tefal pressure cooker or using a DAKO […] system as indicated. Antibody staining was performed as described elsewhere (Cottle et al., (2013) Cell reports, 3: 427-441), except triton x-100 was included in blocking buffers, and cover slips mounted using Prolong Gold (Invitrogen). Antibodies and stains are listed below. Imaging was using an Aperio brightfield and fluorescent scanners (MHP), Olympus Fluoview 500 (Biochemistry Imaging Suite), Nikon C2 or Leica SP8 confocal microscope (MMI). All quantifications with the exception of Nanostring analysis and Chi squared tests for analysis of mendelian ratios, were analyzed using the unpaired Student's t-test assuming unequal variance in Microsoft Excel and P≤0.05 values were considered significant. One or two tailed tests were selected as appropriate for hypothesis. Values presented are Mean±Standard Error of the Mean (S.E.M). 2K/BW % was calculated as the combined kidney weight over total body weight percentage. Albumin Creatinine Ratios (ACR) were calculated as μg Albumin over mg of Creatinine. Cyst identity was measured as a proportion of cyst epithelial area for each marker out of total sum of cyst epithelial areas of all markers (adjusted for marker co-localisation). Cystic index % is calculated as the proportion of cystic space occupied out of total kidney area in DBA-stained kidney longitudinal cross-sections. Cyst number reflects the average number of cysts counted per DBA-stained longitudinal kidney cross section. Cyst size is the average cross-sectional cyst size (mm^2) of cysts sampled from DBA-stained kidney longitudinal cross sections. Due to escape of Cre activity at the Aurka locus in cysts, unless otherwise indicated references to Inpp5e^Δ/Δ; Aurka^Δ/Δ immunostains and their quantifications reflect non-cystic regions throughout this study.

The subject of assay [3] is Inpp5e^Δ/Δ mice. As to the kind of experiment: Oral MK2206 treatment of Inpp5e^Δ/Δ mice. It counts as in vivo, mouse. Here is the method:
as §1

Where [4] appears, read: daily P4 to P10, P11, dose dependent, up to 75 mg/kg.
[5] abbreviates: oral, daily from P9, sacrificed at P15, vs vehicle.

The structures appear in SMILES notation.

The source of these data is patent publication US20220372491A1, “TREATMENT OF RENAL CYSTIC DISEASE” (MONASH UNIVERSITY, priority 2019, published 2022).

In the case of `CO[C@H]1C[C@@H]2CC[C@@H](C)[C@@](O)(O2)C(=O)C(=O)N2CCCC[C@H]2C(=O)O[C@H]([C@H](C)C[C@@H]2CC[C@@H](OCCO)[C@H](OC)C2)CC(=O)[C@H](C)/C=C(\C)[C@@H](O)[C@@H](OC)C(=O)[C@H](C)C[C@H](C)/C=C/C=C/C=C/1C` [Everolimus], in assay [1], the cyst number entry is listed as “not number” and the cyst size result is “reduction in cyst size”.

`NC1(c2ccc(-c3nc4ccn5c(=O)[nH]nc5c4cc3-c3ccccc3)cc2)CCC1` [MK2206]: in assay [2] (setting [4]), the cyst number entry is reported as “reducing”, the cyst size entry is “reducing”, the cystic index result is given as “reducing” and the “kidney to body weight ratio” value was “reducing”. Besides, the “severity of PKD” value in assay [2] (daily P4 to P10, sacrifice at P11, up to 75 mg/kg) was “reduce the severity of PKD in a dose dependent manner”. The “% AKT pS473 high collecting duct cells” value in assay [3] (cystic Inpp5e^Δ/Δ and control mice, Vehicle or MK2206) is recorded as “reduces AKT pS473 detection”. In addition, in assay [3] (setting [5]), the “acquisition of cysts (average cyst number per section)” value was “slowed the acquisition of cysts”, the ciliation entry was “increased ciliation”, the cyst size result was “reduced cyst size” and the cystic index result is “reduced the cystic index”. Further, in assay [3] (setting [5]), the “kidney size (2K/BW %)” value is “significantly smaller than vehicle treated controls”, the “proportion of AURKA high cells” value is “also reduced” and the “proportion of collecting duct cells with phosphorylated AKT (AKT pT308 high)” value was “reduction in the proportion of collecting duct cells with phosphorylated AKT”.
